# Data: patent US20210262029A1, “TREATMENT OF KCNQ2 AND KCNQ3 GAIN OF FUNCTION-ASSOCIATED DISORDERS” (The Trustees of Columbia University in the City of New York, priority 2018, published 2021)
# Columns and labels:
# [1] = biological target: KCNQ3 (Homo sapiens, UniProt O43525); conditions: homomeric KCNQ3 wild type, CHO cells
# From the text: (§1) Variants were introduced in KCNQ3 human cDNA cloned into pcDNA3.1 by QuikChange site-directed mutagenesis (Agilent Technologies, Milan, Italy), as previously described.^12 Channel subunits were expressed in Chinese hamster ovary (CHO) cells by transient transfection using Lipofectamine 2000 (Invitrogen, Carlsbad, Calif.) according to the manufacturer's protocol.^17 A plasmid encoding enhanced green fluorescent protein (Clontech Laboratories, Mountain View, Calif.) was used as a transfection marker; total cDNA in the transfection mixture was kept constant at 4 μg.
# (§2) Currents were recorded under whole-cell patch-clamp at room temperature (20-22° C.) 1 to 2 days after transfection as reported.^12 Current densities (expressed in pA/pF) were calculated as peak K^+ currents at 0 mV divided by cell capacitance. To generate conductance-voltage curves, the cells were held at −80 mV, then depolarized for 1.5 seconds from ˜120 to +20 mV in 10 mV increments, followed by an isopotential pulse at 0 mV of 300-millisecond duration. The current values recorded at the beginning of the 0 mV pulse were measured, normalized, and expressed as a function of the preceding voltages. The data were then fit to a Boltzmann distribution of the following form: y=max/[1+exp(V½−V)/k], where V is the test potential, V½ the half-activation potential, and k the slope factor.
# [2] = biological target: KCNQ3 R2H (Homo sapiens, UniProt O43525, R230H); conditions: 30 mM TEA; homomeric KCNQ3 R2H (R230H); CHO cells
# From the text: as §1, §2
# [3] = biological target: KCNQ3 R2S (Homo sapiens, UniProt O43525, R230S); conditions: 30 mM TEA; homomeric KCNQ3 R2S (R230S); CHO cells
# From the text: as §1, §2
# [4] = biological target: KCNQ3 R1Q (Homo sapiens, UniProt O43525, R227Q); conditions: 30 mM TEA; homomeric KCNQ3 R1Q (R227Q); CHO cells
# From the text: as §1, §2
# [5] = biological target: KCNQ3 R2C (Homo sapiens, UniProt O43525, R230C); conditions: 30 mM TEA; homomeric KCNQ3 R2C (R230C); CHO cells
# From the text: as §1, §2
# [6] = tested on: KCNQ2 + KCNQ3 + KCNQ3 R2S; conditions: KCNQ2 + KCNQ3 + KCNQ3 R2S 1:0.5:0.5, CHO cells
# From the text: (§3) To mimic the genetic condition of patients, who carry a single mutant allele, and considering that IKM in adult neurons is mainly formed by tetrameric co-assembly of KCNQ2 and KCNQ3 subunits, we transfected CHO cells with KCNQ2 and KCNQ3 cDNAs in a 1:1 ratio (to mimic the genetic balance of normal individuals), and KCNQ2+KCNQ3+mutant KCNQ3 1:0.5:0.5 ratio (to mimic the genetic balance of affected individuals).
# as §1, §2
# [7] = tested on: KCNQ2 + KCNQ3 + KCNQ3 R2C; conditions: KCNQ2 + KCNQ3 + KCNQ3 R2C 1:0.5:0.5, CHO cells
# From the text: as §3, §1, §2
# [8] = tested on: KCNQ2 + KCNQ3 + KCNQ3 R1Q; conditions: KCNQ2 + KCNQ3 + KCNQ3 R1Q 1:0.5:0.5, CHO cells
# From the text: as §3, §1, §2
# [9] = biological target: KCNQ2 + KCNQ3 (Homo sapiens, UniProt O43525+O43526); conditions: KCNQ2 + KCNQ3 1:1, CHO cells
# From the text: as §3, §1, §2
# [10] = tested on: KCNQ2 + KCNQ3 + KCNQ3 R2H; conditions: KCNQ2 + KCNQ3 + KCNQ3 R2H 1:0.5:0.5, CHO cells
# From the text: as §3, §1, §2
# Sequence of KCNQ2 + KCNQ3 (O43526 1-844 isoform O43526-3): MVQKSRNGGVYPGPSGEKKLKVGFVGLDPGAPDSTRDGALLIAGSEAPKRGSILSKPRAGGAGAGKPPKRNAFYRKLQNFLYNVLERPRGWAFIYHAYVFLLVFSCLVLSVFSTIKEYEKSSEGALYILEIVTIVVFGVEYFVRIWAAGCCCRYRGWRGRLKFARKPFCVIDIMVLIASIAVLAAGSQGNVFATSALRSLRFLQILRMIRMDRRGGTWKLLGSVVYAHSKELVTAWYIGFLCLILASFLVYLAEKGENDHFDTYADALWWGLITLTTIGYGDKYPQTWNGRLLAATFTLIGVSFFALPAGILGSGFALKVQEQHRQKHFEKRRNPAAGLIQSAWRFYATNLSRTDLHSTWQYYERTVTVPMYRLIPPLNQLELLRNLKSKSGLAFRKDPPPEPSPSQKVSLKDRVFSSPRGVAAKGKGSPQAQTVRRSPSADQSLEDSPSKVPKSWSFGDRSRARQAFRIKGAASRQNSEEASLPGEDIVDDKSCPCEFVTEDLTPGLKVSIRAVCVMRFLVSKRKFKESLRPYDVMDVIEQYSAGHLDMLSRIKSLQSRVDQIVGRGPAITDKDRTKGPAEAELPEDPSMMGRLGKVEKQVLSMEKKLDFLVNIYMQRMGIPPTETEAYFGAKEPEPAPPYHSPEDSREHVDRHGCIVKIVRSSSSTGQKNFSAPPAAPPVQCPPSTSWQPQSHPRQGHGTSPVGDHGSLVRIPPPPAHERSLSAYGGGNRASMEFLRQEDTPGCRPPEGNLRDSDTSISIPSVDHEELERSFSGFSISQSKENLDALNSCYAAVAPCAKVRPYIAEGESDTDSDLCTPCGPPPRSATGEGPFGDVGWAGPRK
# Sequence of KCNQ2 + KCNQ3 (O43525 whole entry): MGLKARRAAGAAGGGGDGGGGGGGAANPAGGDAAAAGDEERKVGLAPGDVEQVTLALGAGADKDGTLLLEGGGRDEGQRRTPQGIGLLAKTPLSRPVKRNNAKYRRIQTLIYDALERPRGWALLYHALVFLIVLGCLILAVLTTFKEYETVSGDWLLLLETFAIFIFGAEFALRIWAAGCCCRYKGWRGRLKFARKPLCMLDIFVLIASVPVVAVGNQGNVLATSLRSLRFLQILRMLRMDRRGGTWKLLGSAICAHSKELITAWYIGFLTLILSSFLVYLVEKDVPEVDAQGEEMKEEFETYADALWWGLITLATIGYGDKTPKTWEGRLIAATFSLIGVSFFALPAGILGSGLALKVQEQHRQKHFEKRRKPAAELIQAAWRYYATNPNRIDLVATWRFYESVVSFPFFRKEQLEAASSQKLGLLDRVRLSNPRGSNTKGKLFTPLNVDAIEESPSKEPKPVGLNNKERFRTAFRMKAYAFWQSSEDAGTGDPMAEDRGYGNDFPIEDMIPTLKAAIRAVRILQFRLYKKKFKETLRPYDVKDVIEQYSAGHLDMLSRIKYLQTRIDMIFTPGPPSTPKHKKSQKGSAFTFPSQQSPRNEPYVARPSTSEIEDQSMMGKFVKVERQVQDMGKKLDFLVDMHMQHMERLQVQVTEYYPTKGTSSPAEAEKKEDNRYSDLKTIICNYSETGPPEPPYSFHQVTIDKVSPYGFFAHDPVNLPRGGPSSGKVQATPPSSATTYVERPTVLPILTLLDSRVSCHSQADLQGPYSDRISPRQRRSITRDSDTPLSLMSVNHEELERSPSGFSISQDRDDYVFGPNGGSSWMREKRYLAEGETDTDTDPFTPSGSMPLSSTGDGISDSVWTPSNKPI
# Sequence of KCNQ3 (O43525 whole entry): as above
# Sequence of KCNQ3 R1Q (O43525 whole entry R227Q): as the sequence (O43525 whole entry) above, with R227Q counted along it
# Sequence of KCNQ3 R2H (O43525 whole entry R230H): as the sequence (O43525 whole entry) above, with R230H counted along it
# Sequence of KCNQ3 R2C (O43525 whole entry R230C): as the sequence (O43525 whole entry) above, with R230C counted along it
# Sequence of KCNQ3 R2S (O43525 whole entry R230S): as the sequence (O43525 whole entry) above, with R230S counted along it
structure (smiles),measurement,setting,value
"CC[N+](CC)(CC)CC [TEA, tetraethylammonium]","Blockade by TEA, % 0.3 mM",[1]; 0.3 mM TEA,6.4 ± 1.8%
same,"Blockade by TEA, % 3 mM",[1]; 3 mM TEA,13.0 ± 3.4%
same,"Blockade by TEA, % 30 mM",[1]; 30 mM TEA,61.7 ± 5.7%
same,"Blockade by TEA, % 30 mM",[2],70.9 ± 7.3%
same,"Blockade by TEA, % 30 mM",[3],66.1 ± 6.1%
same,"Blockade by TEA, % 30 mM",[4],61.1 ± 6.8%
same,"Blockade by TEA, % 30 mM",[5],58.6 ± 13%
same,"Blockade by TEA, % 0.3 mM",[6]; 0.3 mM TEA,12.9 ± 2.3%
same,"Blockade by TEA, % 3 mM",[6]; 3 mM TEA,43.6 ± 8.2%
same,"Blockade by TEA, % 30 mM",[6]; 30 mM TEA,80.1 ± 6.5%
same,"Blockade by TEA, % 0.3 mM",[7]; 0.3 mM TEA,14.0 ± 6.2%
same,"Blockade by TEA, % 3 mM",[7]; 3 mM TEA,47.1 ± 9.9%
same,"Blockade by TEA, % 30 mM",[7]; 30 mM TEA,77.0 ± 7.3%
same,"Blockade by TEA, % 0.3 mM",[8]; 0.3 mM TEA,19.3 ± 2.0%
same,"Blockade by TEA, % 3 mM",[8]; 3 mM TEA,44.1 ± 4.3%
same,"Blockade by TEA, % 30 mM",[8]; 30 mM TEA,85.3 ± 2.1%
same,"Blockade by TEA, % 0.3 mM",[9]; 0.3 mM TEA,15.6 ± 3.1%
same,"Blockade by TEA, % 3 mM",[9]; 3 mM TEA,50.5 ± 3.1%
same,"Blockade by TEA, % 30 mM",[9]; 30 mM TEA,78.8 ± 5.6%
same,"Blockade by TEA, % 0.3 mM",[10]; 0.3 mM TEA,20.8 ± 3.1%
same,"Blockade by TEA, % 3 mM",[10]; 3 mM TEA,47.4 ± 2.5%
same,"Blockade by TEA, % 30 mM",[10]; 30 mM TEA,78.8 ± 3.2%
